Results as given in US10350334B2, “Catheter locking solution having antimicrobial and anticoagulation properties” (Becton, Dickinson and Company, priority 2009, dated 2019).
Values joined by “and” are separate entries in the source; they are usually repeats but may differ in a detail not shown here. Identical values can stand only once.

What was measured:
P. aeruginosa = experiment: Minimum Biofilm Inhibitory Concentration (MBIC) test; format: cell-based, Pseudomonas aeruginosa; details: for MBIC: adhered cells, 24 hours incubation; for MBIC Assuming 2 mL lock volume: amount in 2 mL lock volume
Protocol: (§1) To further evaluate the efficacy of local anesthetics in antimicrobial lock solutions of the present invention, the minimum concentration at which these drugs can inhibit biofilm growth was tested. The local anesthetics identified in Table 4 were tested against three different species of bacteria identified in Table 3 to assess the antimicrobial efficacy against adhered microbes. It is known that adhered microbes, or biofilms, can be more resistant to antimicrobials than planktonic cells.
(§2) Experiments were conducted against adhered microbes as follows: first, a test tube containing 10 mL of sterile TSB was inocubated with BD BBL™ Qualiswab™, with the strain of interest. The tube was placed in an incubator at 37° C. overnight. The next day, a flask containing 25 mL of sterile TSB (or Sabouraud Dextrose Broth (SDB) for fungal species) was inoculated with 1 mL of bacterial suspension. The flask was placed in an incubator at 37° C. and shaken at 150 RPM. The next day a new flask containing 25 mL of TSB (or SDB) media was inoculated with 1 mL from the previous culture. The bacterial or fungal species were allowed to grow to log phase.
(§3) After the microbes entered the log phase, their concentration was checked to ensure that they had reached a minimum of 1×10^8 CFU/mL per a 0.5 MacFarland standard. Microbes were diluted to a concentration of 1×10^5 CFU/mL using a nephelometer and 200 μL of the microbial suspensions were plated on each of the wells of a 96 well plate. The plate was incubated in a standard incubator at 37° C. for 2 hours to allow for microbial cell adhesion. Next, dilutions of the desired concentrations of antimicrobials were prepared. In a separate, blank plate, 1:2 serial dilutions were prepared with the highest concentration of the antimicrobial to the left of the plate, decreasing in concentration towards the right of the plate. For example, 170 μL of the highest concentration of an antimicrobial was dispensed in column 1 (left of plate). Each of the rest of the columns received 170 μL of saline. Column 2 received 170 μL of antimicrobial, making for a 1:2 dilution (or 50% of original concentration). Contents of Column 2 were then transferred to 3, then from 3 to 4, and so forth. Each well was supplemented with 20% media (TSB for S. epidermidis and P. aeruginosa and SDB for C. albicans), thereby ensuring the viability of the cells over the test time period (24 hours). Positive control wells had 20% media in saline. The bacterial plate was removed from the incubator, and bacterial suspension discarded (adhered cells remain on plate). The antimicrobial formulations identified in Table 4 were then added to the bacterial plate and incubated in a standard incubator at 37° C. for 24 hours. After this time period, solutions in the plate were discarded and plates were rinsed with 200 μL of saline. The cells were then fixed with 200 μL of 95% ethanol for 30 minutes, and allowed to air dry for 10 minutes. Next, the cells were stained for 20 minutes with 250 μL of a filtered solution of 2% crystal violet dye. The plates were then rinsed three times with water, and the 2% crystal violet dye was solubilized with 300 μL of 95% ethanol. The plates were allowed to stand for 10 minutes to complete solubilization and then the plates were read on a spectrophotometer at 570 nm absorbance, wherein high absorbance readings of >0.600 indicated microbial growth. Columns in the plate that had no growth were recorded as the […] (MBIC). FIG. 2 illustrates the MBIC corresponding to the specific local anesthetics.

S. epidermidis = experiment: as above; format: cell-based, Staphylococcus epidermidis; details: for MBIC: adhered cells, 24 hours incubation; for MBIC Assuming 2 mL lock volume: amount in 2 mL lock volume
Protocol: as §1, §2, §3

C. albicans = experiment: as above; format: cell-based, Candida albicans; details: for MBIC: adhered cells, 24 hours incubation; for MBIC Assuming 2 mL lock volume: amount in 2 mL lock volume
Protocol: as §1, §2, §3

sheep plasma = experiment: Sheep's Plasma Clotting Assay (USP coagulation test); format: biochemical; details: for Equivalence to Heparin: calculated from volumes giving 50% clotting versus heparin standard
Protocol: In order to understand what the working concentration range could be for the anesthetics tested, a Sheep's Plasma Clotting Assay was performed. This test is based on the United States Pharmacopeia (USP) standard test for coagulation and is often used to understand heparin potency. […] Sheep plasma was thawed in a water bath set to 37° C. To facilitate thawing, the plasma in the bottle was inverted every 15 minutes. The plasma was thawed after about 45-60 minutes. The thawed sheep plasma was filtered through glass wool or filtered into a clean glass beaker or flask, to remove particulate matter and to activate it. About 70-80 mL of filtered sheep plasma was collected. Next, a set of test tubes were prepared (VWR Disposable 13×100-mm) in a 6×12 rack. Ten test tubes were needed for each test solution including ten test tubes for the heparin standard. […] For each test solution, every (10) test tube received different volumes of 0.9% NaCl. […] Next, the local anesthetics were added, namely, tetracaine at 30 mg/mL, dibucaine at 30 mg/mL, and bupivacaine at 38 mg/mL. Each of the ten test tubes received different volumes of test solutions, starting with 280 μL and increasing in volume by 20 μL until reaching a volume of 460 μL at the tenth tube. The total volume of saline and test solutions in each of the tubes was 800 μL. A standard solution, namely, USP heparin sodium standard, was also prepared in the same way, with the starting concentration of heparin being 5.6 U/mL. Next, 1 mL of sheep plasma for heparin assay (Bio-Supplies, Inc, P-SPR-1500) was pipetted into each tube, and the rack was gently shaken to ensure mixing. Two hundred μL of a 1% CaCl2 solution was placed into each tube. The total volume for each tube is 2 mL. Each tube was capped with a VWR Plug-type cap, and contents of each tube were inverted six times to ensure that the entire inner wall of each tube was wet. Tubes were incubated for 1 hour at room temperature. After the 1 hour time period, the extent of clotting in each tube was determined by gently shaking each individual test tube (tapping the end gently is acceptable) and then tilting the tube to observe a clot both vertically and horizontally. The degree to which each tube developed a clot was recorded using the following criteria (per the USP Standard) for the visual inspection of the tubes: • 0% Clotting=No apparent clot formed. • 25% Clotting=Small observable clot with mostly liquid. Clot is very mobile. • 50% Clotting=Plasma is completely clotted but mobile. • 75% Clotting=Clot is not mobile but liquid is still present. • 100% Clotting=Clot is not mobile and no liquid is present.
Because of the testing protocol, starting concentrations of anesthetics were diluted from the original formulation. Calculations can be made to compare the efficacy of these anesthetics to the standard anticoagulant heparin by calculating the point at which both standard and test samples yield 50% clotting. Using this calculation, the anesthetic concentration can be referenced back to a measure of U/mL of heparin equivalence.

Row | Structure (SMILES) | MBIC (P. aeruginosa; HCl) | MBIC (P. aeruginosa; listed as tetracaine, HCl) | MBIC Assuming 2 mL lock volume (P. aeruginosa) | MBIC (S. epidermidis; HCl) | MBIC (S. epidermidis; listed as tetracaine, HCl) | MBIC Assuming 2 mL lock volume (S. epidermidis) | MBIC (C. albicans) | MBIC Assuming 2 mL lock volume (C. albicans) | volume at 50% coagulation (sheep plasma; Rep 1) | Equivalence to Heparin (sheep plasma; per replicate, HCl) | Equivalence to Heparin (sheep plasma; per replicate, listed as tetracaine, HCl) | 50% clotting range (sheep plasma; final concentration in tube, 1 hour at room temperature, per replicate, HCl) | MBIC (P. aeruginosa) | MBIC (S. epidermidis) | coagulation (sheep plasma; at all concentrations tested)
1 | CCCCNc1ccc(C(=O)OCCN(C)C)cc1.Cl [Tetracaine, Tetracaine HCl] | 6.41 mg/mL | 1.88 mg/mL | 12.82 mg | 0.94 mg/mL | 0.9 mg/mL | 1.88 mg | 0.24 mg/mL | 0.48 mg | 350 µL | 6.06 U/mL and 6.24 U/mL (2×) | 6.25 U/mL | 5.4 mg/mL (2×) and 5.1-5.4 mg/mL | – | – | –
2 | CCCCN1CCCCC1C(=O)Nc1c(C)cccc1C.Cl (stereo not shown) [Bupivacaine, Bupivacaine HCl] | – | – | 32.5 mg | – | – | 16.24 mg | No inhibition | No inhibition | – | – | – | – | 16.25 mg/mL | 8.12 mg/mL | 75%
